Assay results as given in patent US20170135322A1, “A BIOCONTROL COMBINATION AND METHOD FOR IMPROVING QUALITY OF SHELLED EGGS” (NOBACTRA ISRAEL Ltd., priority 2014, published 2017).
“And” between values parts separate entries of the source, which are not always exact repeats. Equal entries are not always repeated.

Columns and labels:
Assay in all cases: Effect on fungi growth (Example III)
Type in all cases: cell-based
[1] = system: Fusarium Spp. (isolate #1); settings: additive 10%, without biocontrol formulation, initial diameter 0.5 cm
Text: (§1) The effect of various additives on fungi growth was examined. The fungi examined included two isolates of Fusarium Spp. (isolate #1 and isolate #2), sclerotium, and trychoderma.
(§2) The larger the colony's dimension (diameter) in the petri dish, the lower is the inhibitory effect of the additive. The initial diameter of the colony before treatment was 0.5 cm.

[2] = system: Fusarium Spp. (isolate #2); settings: additive 10%, without biocontrol formulation, initial diameter 0.5 cm
Text: as §1, §2

[3] = system: sclerotium; settings: additive 10%, without biocontrol formulation, initial diameter 0.5 cm
Text: as §1, §2

[4] = system: trychoderma; settings: additive 10%, without biocontrol formulation; initial diameter 0.5 cm
Text: as §1, §2

| Structure (SMILES) | colony size (diameter) [1] | colony size (diameter) [2] | colony size (diameter) [3] [cm] | colony size (diameter) [4] [cm] | colony size (diameter) ([1]; hydrate) | colony size (diameter) ([2]; hydrate) | colony size (diameter) ([3]; hydrate) |
| --- | --- | --- | --- | --- | --- | --- | --- |
| O=C([O-])O.[K+] [Potassium bicarbonate, potassium becarbonate] | 1.6 cm and 1.5 cm and 2.0 cm and 1.8 cm | 1.3 cm and 1.2 cm | 0.5 | 0.5 |  |  |  |
| O.O.O.O.O.O.O.O=S(=O)([O-])[O-].[Mg+2] [Magnesium sulphate hepta hydrate, magnesiumsulphate hepta hydrate] |  |  |  | 0.5 | 3.2 cm and 3.1 cm | 3.0 cm and 3.1 cm | 3.0 cm and 2.7 cm and 2.5 cm and 2.2 cm |
| O=C([O-])O.[Na+] [Sodium bicarbonate, sodium bicarbonate] | 1.0 cm and 1.1 cm | 0.5 cm | 0.5 | 0.5 |  |  |  |
